According to patent publication US5436251A, “Treatment of anxiety and gastrointestinal disorders with azabicyclo carbonyl-2-(cyclopropylmethyloxy)benzamide” (John Wyeth & Brother, Limited, priority 1992, dated 1995):

Key:
5-HT3 receptors = target: T1, 5-HT3 receptors (Rattus norvegicus, UniProt P35563); assay: 5-HT3 antagonistic activity in the rat vagus (antagonism of 5-HT depolarization of isolated vagus nerve, Schild analysis); set-up: species or system rat (Sprague-Dawley); settings: for Kb: antagonism of 5-HT depolarization, rat vagus nerve in vitro, Schild analysis, read-out: pA2 (converted)
T1 construct: from tissue; host or cells: isolated vagus nerve segments, Sprague-Dawley rat
T1 sequence (P35563 24-483): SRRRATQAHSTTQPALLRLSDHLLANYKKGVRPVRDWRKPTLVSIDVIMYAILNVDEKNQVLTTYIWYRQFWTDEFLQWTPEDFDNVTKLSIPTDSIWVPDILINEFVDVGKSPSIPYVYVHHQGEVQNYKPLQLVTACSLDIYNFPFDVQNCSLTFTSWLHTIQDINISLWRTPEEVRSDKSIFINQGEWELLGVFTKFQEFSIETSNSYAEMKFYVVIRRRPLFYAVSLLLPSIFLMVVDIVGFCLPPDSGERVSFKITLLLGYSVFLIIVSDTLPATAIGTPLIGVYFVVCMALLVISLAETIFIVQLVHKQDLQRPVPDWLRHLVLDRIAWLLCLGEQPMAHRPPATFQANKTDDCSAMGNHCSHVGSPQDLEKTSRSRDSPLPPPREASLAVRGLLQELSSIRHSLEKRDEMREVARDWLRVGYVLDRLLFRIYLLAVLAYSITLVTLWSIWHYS
Procedure: Compound A, the compound of GB 2236528A and the compounds disclosed in GB 2213816A are tested for 5-HT3 antagonistic activity in the rat vagus by the following procedure:
The method is similar to that described by Ireland and Tyers, Br. J. Pharmac., 1987, 90, 229-238 and is dependent upon the ability of 5-HT to depolarize the vagus nerve in vitro.
Segments of the vagus nerve from Sprague-Dawley rats were placed in a perspex chamber and perfused with Krebs solution. Electrodes, positioned at either end of the nerve segment, were used to record the potential differences which ensued upon the addition of various concentrations of 5-HT to one end of the nerve segment.
Concentration-response curves to 5-HT were obtained in this manner prior to and following equilibration of the nerve segment with Krebs solution containing the test-substance.

[1] = Potential anxiolytic activity: mouse exploratory activity in a two-compartment light/dark box; assay type: in vivo; settings: for minimal effective dose: Mus musculus, sc, read-out: minimum effective dose (MED)
Procedure: Compound A, the compound of GB 2236528A and a representative number of compounds disclosed in GB 2213816A which had high pA2 values in the 5-HT3 -antagonist test procedure given above were tested for potential anxiolytic activity by a test procedure measuring mouse exploratory activity in a two-compartment light/dark box based upon the procedure of B Costall et al, Neuropharmacology, 1987, 26, 195-200 and J. N. Crawley et al, Pharmac. Biochemo Behav., 1980, 13, 167-170. The test involves observing groups of mice placed in an open topped box, one third of which is painted black and illuminated under a dim red light and partitioned from the remainder of the box which is painted white and brightly illuminated. Access between the two sections is via an opening in the centre of the partition. The groups of mice are treated with vehicle or test compound and various behavioural parameters of the animals are measured including the number of exploratory rearings made by the mice in each section and the number of times the mice cross lines marked on the floor of each section. For each treatment group the mean numbers of line crossings and rears in each section of the box are calculated. Differences between drug-treated groups and vehicle-treated controls are compared using Student's unpaired t-test. […] Test compounds are considered to be active if they induce a similar set of changes and, in particular, if they produce a significant (p<0.05) increase in rearing activity in the light section of the box.

[2] = significant (p<0.05) increase in rearing activity in the light section

| SMILES | Kb (5-HT3 receptors) [nM] | potency as 5-HT3 antagonist compared with GB 2236528A and GB 2213816A compounds (5-HT3 receptors; rat vagus, comparison in words) | minimal effective dose [1, 2] [mg/kg] | potency as potential anxiolytic compared with GB 2236528A and GB 2213816A compounds ([1]; mouse light/dark box, s.c., comparison in words) | minimum effective dose (MED) ([1]; s.c., significant (p<0.05) increase in rearing activity in the light section) [mg/kg] |
| --- | --- | --- | --- | --- | --- |
| O=C(NC(=O)c1ccccc1OCC1CC1)N[C@H]1C[C@H]2CC[C@@H](C1)N2 [Compound A, (endo)-N-[[[8-azabicyclo[3.2.1]-octan-3-yl]amino]carbonyl]-2-(cyclopropylmethyloxy)benzamide] | 0.398 | surprisingly more potent as 5-HT3 -antagonists | 0.001 | surprisingly more potent |  |
| CN1[C@@H]2CC[C@H]1C[C@@H](NC(=O)NC(=O)c1ccccc1OCC1CC1)C2 [Compound of GB 2236528A, (endo)-N-[[(8-methyl-8-azabicyclo[3.2.1]octan-3-yl)amino]carbonyl]-2-(cyclopropylmethoxy]benzamide] | 1.26 |  | 0.01 |  |  |
| O=C(NC(=O)c1ccccc1OCC1CC1)NC1CC2CCC(C1)N2 (stereo not shown) [Example 1] |  |  |  |  | 0.1 |
